Key:
[1] = tested on: Isabrown laying hens; test: Test 3: feed intake and egg laying of laying hens subject to thermal stress; assay type: in vivo, hen
Experimental: Test 3: Study of the Effect of the Administration of a Feed Comprising the Adjuvant with the Scutellaria baicalensis Extract on a Solid Vehicle on the Feed Intake of Laying Hens Subject to Thermal Stress 72 Isabrown laying hens thirty weeks old at the beginning of the test were divided into three groups of twelve cages each containing two hens. The test was carried out until the hens were 38 weeks old. Group 1 received the control feed. Group 2, also called the OTC group, received the control feed supplemented with an antibiotic, 400 ppm of oxytetracycline. Group 3, also called the SCU group, received the control feed supplemented with an extract from the root of Scutellaria baicalensis providing 6 mg of baicalin/kg of feed. After three weeks of distribution of the experimental feed, the hens were subject to a variation in temperature. The temperature of the environment increased from 22° C. (thermal comfort) to 35° C. for 5 days. Food intake, number of eggs laid and average weight of the eggs were recorded every week and every day during the week of the high temperature as well as during the following week. The test was divided into three phases: pre-heat increase phase, thermal stress phase and post-high temperature stress phase.

[2] = tested on: piglets; test: Test 5: state of health and resistance to disease of piglets subject to a stress; assay type: in vivo, pig; conditions: 100 ppm in the feed
Text: Test 5: Study of the Effect of the Administration of a Feed Comprising the Adjuvant with the Extract of Scutellaria baicalensis on a Solid Vehicle on the Improvement in the State of Health and Resistance to Disease of Piglets Subject to a Stress
The piglets were 42 days old at the beginning of the test. Three groups were formed: a control group, a group receiving the same feed supplemented with 100 ppm of an antibiotic (tylosine) and finally the last group receiving a feed supplemented with 100 ppm of an extract of Scutellaria baicalensis, that is 30 ppm of baicalin per kg of feed. The diseases were noted as were the curative treatments used in each groups.

Compound	egg-laying rate ([1]; 2 weeks including the thermal stress phase and the following week, control 85.2%) [%]	daily feed intake per hen ([1]; thermal stress phase (35° C. for 5 days), OTC 400 ppm in feed, SCU 6 mg baicalin/kg of feed, control 50.9 g) [g]	% Pigs not treated [2] [%]	% Pigs treated [2] [%]	% treatments [2] [%]	Mortality + elimination (%) [2] [%]	Number of treatments: Cough [2]	Number of treatments: Lame [2]	Number of treatments: Lean [2]	Number of treatments: Nervous symptoms [2]	Number of treatments: Watery diarrhoea [2]	Pigs treated per cause: Cough [2]	Pigs treated per cause: Lame [2]	Pigs treated per cause: Lean [2]	Pigs treated per cause: Nervous symptoms [2]	Pigs treated per cause: Watery diarrhoea [2]	Number of pigs treated ([2]; P (Chi2) <0.05)	Number of treatments ([2]; curative treatments, P (Chi2) <0.05)	Withdrawn from test ([2]; number of pigs)	Number of deaths ([2]; piglets 42 days old at start)
CN(C)[C@@H]1C(O)=C(C(N)=O)C(=O)[C@@]2(O)C(O)=C3C(=O)c4c(O)cccc4[C@@](C)(O)[C@H]3[C@H](O)[C@@H]12 [OTC, oxytetracycline]	88.5	53.5	–	–	–	–	–	–	–	–	–	–	–	–	–	–	–	–	–	–
CC[C@H]1OC(=O)C[C@@H](O)[C@H](C)[C@@H](O[C@@H]2O[C@H](C)[C@@H](O[C@H]3C[C@@](C)(O)[C@@H](O)[C@H](C)O3)[C@H](N(C)C)[C@H]2O)[C@@H](CC=O)C[C@@H](C)C(=O)/C=C/C(C)=C/[C@@H]1CO[C@@H]1O[C@H](C)[C@@H](O)[C@@H](OC)[C@H]1OC [Tylosine, tylosine]	–	–	48	52	56.0	4.0	7	0	2	1	4	7	0	2	1	4	13	14	1	0

— patent publication US11077127B2, “Adjuvant containing baicalin, particularly from a Scutellaria baicalensis extract, and animal feed containing such an adjuvant” (DELTAVIT, priority 2014, dated 2021)
